Values after ≈ are worked out from the molar mass of the structure shown. Active and inactive are the calls of the source. The calls are words filed in the database; no cut-off is given here.
What was measured:
[1] = system: Streptomyces scabiei; assay: Antibacterial activity against Streptomyces scabiei CGMCC4.7610246 assessed as growth inhibition after 36 hrs by turbidimetric analysis; type: functional; conditions: CGMCC4.7610246, 36 h
[2] = system: Staphylococcus aureus; assay: Antibacterial activity against Staphylococcus aureus ATCC 25923 assessed as growth inhibition at 100 uM after 24 hrs by turbidimetric analysis; type: functional; conditions: for inhibition of growth at 100 µM: ATCC 25923, 24 h, read-out: GI
[3] = system: Staphylococcus aureus; assay: Antibacterial activity against Staphylococcus aureus ATCC 25923 assessed as growth inhibition after 24 hrs by turbidimetric analysis; type: functional; conditions: ATCC 25923, 24 h
[4] = system: Bacillus spizizenii; assay: Antibacterial activity against Bacillus subtilis ATCC 6633 assessed as growth inhibition after 24 hrs by turbidimetric analysis; type: functional; conditions: ATCC 6633, 24 h
[5] = system: Bacillus spizizenii; assay: Antibacterial activity against Bacillus subtilis ATCC 6633 assessed as growth inhibition at 100 uM after 24 hrs by turbidimetric analysis; type: functional; conditions: for inhibition of growth at 100 µM: ATCC 6633, 24 h, read-out: GI
[6] = system: Streptomyces scabiei; assay: Antibacterial activity against Streptomyces scabiei CGMCC4.7610246 assessed as growth inhibition at 100 uM after 36 hrs by turbidimetric analysis; type: functional, organism-based
[7] = system: Staphylococcus aureus; assay: Antibacterial activity against Staphylococcus aureus ATCC 25923 assessed as growth inhibition after 2 to 24 hrs; type: functional, organism-based
[8] = system: Escherichia coli; assay: Antibacterial activity against Escherichia coli assessed as growth inhibition at 100 uM after 24 hrs by turbidimetric analysis; type: functional, organism-based
[9] = system: Ralstonia solanacearum; assay: Antibacterial activity against Ralstonia solanacearum assessed as growth inhibition at 100 uM after 24 hrs by turbidimetric analysis; type: functional, organism-based

Compound	MIC [1] [µM]	MIC [3] [µM]	MIC [4] [µM]	growth inhibition (GI) [6]	growth inhibition (GI) [2]	growth inhibition (GI) [5]	also measured
CCCOC(=O)[C@]12CC[C@@H](C)[C@H](C)[C@H]1C1=CC[C@@H]3[C@@]4(C)[C@@H](O)[C@H](O)[C@H](O)C(C)(C)[C@@H]4CC[C@@]3(C)[C@]1(C)CC2	≥ 100	8 (≈ 4.25 µg/mL)	32 (≈ 17 µg/mL)				inhibition of growth at 100 µM [2]: > 95%; inhibition of growth at 100 µM [5]: > 95%
CC1(C)CC[C@]2(C(=O)OCc3ccccc3Cl)CC[C@]3(C)C(=CC[C@@H]4[C@@]5(C)[C@@H](O)[C@H](O)[C@H](O)C(C)(C)[C@@H]5CC[C@]43C)[C@@H]2C1				inactive	Active	Active	
C[C@H]1[C@H](C)CC[C@]2(C(=O)OCc3ccccc3[N+](=O)[O-])CC[C@]3(C)C(=CC[C@@H]4[C@@]5(C)[C@@H](O)[C@H](O)[C@H](O)C(C)(C)[C@@H]5CC[C@]43C)[C@H]12				inactive	Active	Active	
C[C@H]1[C@H](C)CC[C@]2(C(=O)OCc3ccccc3Cl)CC[C@]3(C)C(=CC[C@@H]4[C@@]5(C)[C@@H](O)[C@H](O)[C@H](O)C(C)(C)[C@@H]5CC[C@]43C)[C@H]12				inactive	Active	Active	
CCCCCCCCCCCCCCCOC(=O)[C@]12CCC(C)(C)C[C@H]1C1=CC[C@@H]3[C@@]4(C)[C@@H](O)[C@H](O)[C@H](O)C(C)(C)[C@@H]4CC[C@@]3(C)[C@]1(C)CC2					Active	Active	
C[C@H]1[C@H](C)CC[C@]2(C(=O)OCc3ccccc3)CC[C@]3(C)C(=CC[C@@H]4[C@@]5(C)[C@H]6O[C@H]6C(=O)C(C)(C)[C@@H]5CC[C@]43C)[C@H]12				Active		Active	
CC1(C)CC[C@]2(C(=O)OCc3ccccc3[N+](=O)[O-])CC[C@]3(C)C(=CC[C@@H]4[C@@]5(C)[C@@H](O)[C@H](O)[C@H](O)C(C)(C)[C@@H]5CC[C@]43C)[C@@H]2C1				inactive	Active	Active	
CCCOC(=O)[C@]12CCC(C)(C)C[C@H]1C1=CC[C@@H]3[C@@]4(C)[C@@H](O)[C@H](O)[C@H](O)C(C)(C)[C@@H]4CC[C@@]3(C)[C@]1(C)CC2	≥ 100	2 (≈ 1.06 µg/mL)	64 (≈ 34 µg/mL)				inhibition of growth at 100 µM [2]: > 95%; growth inhibition (GI) [7]: Dose-dependent effect; inhibition of growth at 100 µM [5]: > 95%
COC(=O)[C@]12CC[C@@H](C)[C@H](C)[C@H]1C1=CC[C@@H]3[C@@]4(C)[C@@H](O)[C@H](O)[C@H](O)C(C)(C)[C@@H]4CC[C@@]3(C)[C@]1(C)CC2	64 (≈ 32.2 µg/mL)	8 (≈ 4.02 µg/mL)	32 (≈ 16.1 µg/mL)				inhibition of growth at 100 µM [2]: > 95%; inhibition of growth at 100 µM [5]: > 95%
CCCCCOC(=O)[C@]12CCC(C)(C)C[C@H]1C1=CC[C@@H]3[C@@]4(C)[C@@H](O)[C@H](O)[C@H](O)C(C)(C)[C@@H]4CC[C@@]3(C)[C@]1(C)CC2					Active	Active	
CC1(C)CC[C@]2(C(=O)OCc3ccc(Cl)cc3)CC[C@]3(C)C(=CC[C@@H]4[C@@]5(C)[C@@H](O)[C@H](O)[C@H](O)C(C)(C)[C@@H]5CC[C@]43C)[C@@H]2C1	≥ 100	64 (≈ 39.2 µg/mL)	≥ 100	inactive			
C[C@H]1[C@H](C)CC[C@]2(C(=O)OCc3ccc(Cl)cc3)CC[C@]3(C)C(=CC[C@@H]4[C@@]5(C)[C@@H](O)[C@H](O)[C@H](O)C(C)(C)[C@@H]5CC[C@]43C)[C@H]12				inactive	Active	Active	
CC1(C)CC[C@]2(C(=O)O)CC[C@]3(C)C(=CC[C@@H]4[C@@]5(C)[C@@H](O)[C@H](O)[C@H](O)C(C)(C)[C@@H]5CC[C@]43C)[C@@H]2C1					Active		
C[C@H]1[C@H](C)CC[C@]2(C(=O)OCc3ccc([N+](=O)[O-])cc3)CC[C@]3(C)C(=CC[C@@H]4[C@@]5(C)[C@@H](O)[C@H](O)[C@H](O)C(C)(C)[C@@H]5CC[C@]43C)[C@H]12				inactive	Active	Active	
CC1(C)S[C@@H]2[C@H](NC(=O)[C@H](N)c3ccccc3)C(=O)N2[C@H]1C(=O)O [AMPICILLIN]	≥ 100	4 (≈ 1.4 µg/mL)	≥ 100				
CCCCCCCCCCCCCCCOC(=O)[C@]12CC[C@@H](C)[C@H](C)[C@H]1C1=CC[C@@H]3[C@@]4(C)[C@@H](O)[C@H](O)[C@H](O)C(C)(C)[C@@H]4CC[C@@]3(C)[C@]1(C)CC2					Active	Active	
C[C@H]1[C@H](C)CC[C@]2(C(=O)OCc3ccccc3)CC[C@]3(C)C(=CC[C@@H]4[C@@]5(C)[C@H]6O[C@H]6[C@@H](O)C(C)(C)[C@@H]5CC[C@]43C)[C@H]12				Active	Active	Active	growth inhibition (GI) [8]: Active; growth inhibition (GI) [9]: Active
CCCCOC(=O)[C@]12CC[C@@H](C)[C@H](C)[C@H]1C1=CC[C@@H]3[C@@]4(C)[C@@H](O)[C@H](O)[C@H](O)C(C)(C)[C@@H]4CC[C@@]3(C)[C@]1(C)CC2	≥ 100	8 (≈ 4.36 µg/mL)	64 (≈ 34.9 µg/mL)				inhibition of growth at 100 µM [2]: > 95%; inhibition of growth at 100 µM [5]: > 95%
C[C@H]1[C@H](C)CC[C@]2(C(=O)O)CC[C@]3(C)C(=CC[C@@H]4[C@@]5(C)[C@@H](O)[C@H](O)[C@H](O)C(C)(C)[C@@H]5CC[C@]43C)[C@H]12				Active	Active	Active	
CC1(C)CC[C@]2(C(=O)O)CC[C@]3(C)C(=CC[C@@H]4[C@@]5(C)C=CC(=O)C(C)(C)[C@@H]5CC[C@]43C)[C@@H]2C1				Active	Active	Active	
CCCCCOC(=O)[C@]12CC[C@@H](C)[C@H](C)[C@H]1C1=CC[C@@H]3[C@@]4(C)[C@@H](O)[C@H](O)[C@H](O)C(C)(C)[C@@H]4CC[C@@]3(C)[C@]1(C)CC2					Active	Active	
CC1(C)CC[C@]2(C(=O)OCc3ccc([N+](=O)[O-])cc3)CC[C@]3(C)C(=CC[C@@H]4[C@@]5(C)[C@@H](O)[C@H](O)[C@H](O)C(C)(C)[C@@H]5CC[C@]43C)[C@@H]2C1				inactive	Active	Active	
CC(C)OC(=O)[C@]12CCC(C)(C)C[C@H]1C1=CC[C@@H]3[C@@]4(C)[C@@H](O)[C@H](O)[C@H](O)C(C)(C)[C@@H]4CC[C@@]3(C)[C@]1(C)CC2	≥ 100	8 (≈ 4.25 µg/mL)	64 (≈ 34 µg/mL)				inhibition of growth at 100 µM [2]: > 95%; inhibition of growth at 100 µM [5]: > 95%
C[C@H]1[C@H](C)CC[C@]2(C(=O)OCc3ccccc3)CC[C@]3(C)C(=CC[C@@H]4[C@@]5(C)C=CC(=O)C(C)(C)[C@@H]5CC[C@]43C)[C@H]12				Active	Active	Active	
CC1(C)CC[C@]2(C(=O)O)CC[C@]3(C)C(=CC[C@@H]4[C@@]5(C)[C@H]6O[C@H]6C(=O)C(C)(C)[C@@H]5CC[C@]43C)[C@@H]2C1				Active		Active	
CN[C@@H]1[C@H](O[C@H]2[C@H](O[C@H]3[C@H](O)[C@@H](O)[C@H](N=C(N)N)[C@@H](O)[C@@H]3N=C(N)N)O[C@@H](C)[C@]2(O)C=O)O[C@@H](CO)[C@H](O)[C@H]1O [STREPTOMYCIN]	4 (≈ 2.33 µg/mL)	≥ 100	2 (≈ 1.16 µg/mL)				
C[C@H]1[C@H](C)CC[C@]2(C(=O)OCc3ccccc3)CC[C@]3(C)C(=CC[C@@H]4[C@@]5(C)[C@H]6O[C@H]6[C@H](O)C(C)(C)[C@@H]5CC[C@]43C)[C@H]12				Active	Active	Active	growth inhibition (GI) [8]: Active; growth inhibition (GI) [9]: Active
CCCCOC(=O)[C@]12CCC(C)(C)C[C@H]1C1=CC[C@@H]3[C@@]4(C)[C@@H](O)[C@H](O)[C@H](O)C(C)(C)[C@@H]4CC[C@@]3(C)[C@]1(C)CC2	≥ 100	8 (≈ 4.36 µg/mL)	≥ 100				inhibition of growth at 100 µM [2]: > 95%; inhibition of growth at 100 µM [5]: > 95%
C[C@H]1[C@H](C)CC[C@]2(C(=O)OCc3ccccc3)CC[C@]3(C)C(=CC[C@@H]4[C@@]5(C)[C@@H](O)[C@H](O)[C@H](O)C(C)(C)[C@@H]5CC[C@]43C)[C@H]12					Active		
